From publication PMC11883425, “The synthesis and investigation of novel 3-benzoylbenzofurans and pyrazole derivatives for anti-HIV activity” (RSC Medicinal Chemistry, 2025)
Read-outs that look alike come from different tables or passages of the source.

How the values were obtained:
HIV-1 Q23 pseudovirus = test: HIV-1 whole virus inhibition assay, Q23 pseudovirus (luciferase, TZM-bl cells); assay type: cell-based
Experimental: (§1) The HIV pseudoviruses were produced from the plasmids that were kindly donated by Dr Mthunzi-Kufa (CSIR, South Africa). Competent DH5α cells and STBL2 cells were transformed with envelope (CAP210.2.00.E8 and Q23.17) and backbone plasmid (HIV-1 SG3 ΔEnv) through heat-shock at 42 °C for 90 seconds and cooled in ice for 5 minutes. The transformed cells were grown in Luria Bertani medium containing 100 μg mL^−1 ampicillin and glycerol stocks were prepared. The transformed cells were grown at 37 °C in a 200 rpm shaking incubator overnight and the plasmids were isolated from the cells using a GeneJET plasmid Miniprep Kit (ThermoFisher Scientific Inc). The purity of the isolated plasmids was assessed for purity using Nanodrop. The HEK 293T cells were co-transfected with the backbone (10 μg) and envelope plasmids (5 μg) using the PolyFect Transfection Reagent (QIAGEN N.V) for 8–12 hours and the transfected cells were grown for 48 hours producing pseudoviruses which were collected, and stocks stored at −80 °C.
(§2) The compounds were serial diluted from 100 to1.56 μM in 96 well plates (Separation Scientific SA (Pty) Ltd) and incubated with either CAP210 or Q23 pseudoviruses (200 TCID50) and incubated for 1 hour. The TZM-bl cells (1 × 10^5 cells per mL containing 7.5 μg mL^−1 DEAE-dextran) were added and incubated for 48 hours. The 96 well plates were centrifuged, and the supernatant was removed leaving only 50 μL in each well. The Bright-Glo™ Luciferase substrate (Anatech Instruments (Pty) Ltd) (50 μL) was added to each well and incubated for 2 minutes in the dark and chemiluminescence readings were taken in a Corning® 96-well white polystyrene plate using a SpectraMax® Paradigm® Multi-Mode Microplate Reader.

HIV-1 CAP210 pseudovirus = test: HIV-1 whole virus inhibition assay, CAP210 pseudovirus (luciferase, TZM-bl cells); assay type: cell-based
Experimental: as §1, §2

[1] = Cytotoxicity in TZM-bl cells by MTT assay; assay type: cell-based; conditions: human, MTT assay, 48 hours, mean ± SEM
Experimental: All cell culture reagents and cell growth medium were purchased from Sigma-Aldrich/Merck. The cell lines are TZM-bl cells (HeLa cells derived cell that is genetically engineered to contain CD4 and CCR5/CXCR4 receptor) were obtained from NIH AIDS Reagent Program and HEK 293T (derived from human embryonic kidney cells) were received as donations from the lab of Dr Patience Mthunzi, Biophotonics laboratory, CSIR. […] The cells were cultured in T-75 culture flasks (Lasec SA (Pty) Ltd Johannesburg) in Dulbecco's modified Eagle's medium (DMEM) with 3.7 g L^−1 […], 0.05% (v/v) gentamicin/mL, 1% penicillin/streptomycin and 10% heat-inactivated fetal bovine serum (Celtic Molecular Diagnostics). All incubations for tissue cell culture were conducted in a 37 °C, 5% CO2, and 95% humidity incubator.
(§3) The cytotoxicity of compounds was evaluated in TZM-bl cells since these cells are susceptible to HIV infections and would be used for the evaluation of HIV entry inhibition by 3-benzoylbenzofurans and pyrazole derivatives.[74] MTT dye (3-(4,5-dimethylthiazol-2-yl)-2,5-diphenyltetrazolium bromide), which is reduced by viable cells to produce […] purple formazan, was then measured and correlated with cell viability.[75] TZM-bl cells were cultured to confluency in DMEM containing 10% FBS and harvested by centrifugation at 1200 × g for 5 minutes. The cells were counted at 1 × 10^5 cells per mL per well and were seeded overnight, followed by treatment with serially diluted compounds from 500 to 0.98 μM for 48 hours. The peripheral blood mononuclear cells (PBMCs) were isolated from the blood of HIV-negative volunteers, treated with phytohaemagglutinin-protein (PHA, 4 μg mL^−1) to stimulate the cells for 2 hours. PBMCs were diluted in RPMI-1640 medium, counted and 1 × 10^6 cells per mL were treated with compounds (500 to 0.98 μM) for 48 hours. Cells were harvested by centrifugation at 1200 × g for 5 minutes, and the supernatants were removed. For the PBMCs, MTS dye (3-(4,5-dimethylthiazol-2-yl)-5-(3-carboxymethoxyphenylo)-2-(4-sulfophenyl)-2H-tetrazolium) was used.[76] A 100 μL of tetrazolium dye (5 mg mL^−1 MTT prepared in DMEM or 1 : 9 dilution MTS prepared in RPMI-1640) was added to the wells and incubated for 4 to 24 hours. MTT samples were solubilized with 100 μL solubilization buffer (1 mL HCl: 9 mL isopropanol) for 30 minutes, and the absorbance reading was taken at 550 nm and 690 nm wavelengths. MTS sample readings were taken at 490 nm without a solubilization step using the SpectraMax^R Paradigm^R Multi-Mode Detection Platform plate reader (Molecular Devices, California, USA).

[2] = system: HIV-1 subtype C pseudoviruses; conditions: cited from earlier work
CAP210 pseudovirus = test: Time of drug addition assay, CAP210 pseudovirus in TZM-bl cells; assay type: cell-based, HIV-1; conditions: added 0, 2, 4, 6, 8 hours post-infection
Experimental: Fig. 5 Time of addition assay of CAP210 HIV infection treated with active compounds. TZM-bl cells were infected with CAP210 pseudoviruses and treated with compounds at various hours post-infection. NVP, 3g, and 4b were used at 3 μM, while 5f and 5h were used at 25 μM. The bars represent the mean ± SEM obtained from three independent experiments.
TZM-bl cells (1 × 10^5 cells per mL containing 7.5 μg mL^−1 DEAE-dextran) were infected with CAP210 pseudovirus at 400 TCID50 and incubated at 37 °C for 48 hours. The compounds were added to the wells at various time points (0, 2, 4, 6, and 8 hours) post-infection. […] After 48 hours, the cells were centrifuged at 1200 × g for 5 minutes, culture media was removed, leaving 50 μL, and Bright-Glo substrate (50 μL) was added to detect luciferase activity for 2 minutes at 37 °C. Inhibition of HIV pseudoviruses by active compounds was detected by reading for chemiluminescence using a Corning® 96-well white polystyrene using the SpectraMax® Paradigm® Multi-Mode Microplate Reader.

HIV-1 PR = target: T1, HIV-1 PR (Human immunodeficiency virus type 1 group M subtype B, UniProt P04585); test: HIV-1 protease inhibition assay (fluorogenic substrate); assay type: biochemical; conditions: for SI (HIV-1 PR): CC50 PBMCs / IC50 HIV-1 PR
T1 construct: 2 μL recombinant HIV-PR (0.2 μg mL^−1) was added only to reaction wells
Experimental: Compounds were serially diluted in protease assay buffer (0.1 M CH3COONa, 1 M NaCl, 1 mM EDTA, 1 mM DTT, and 1 mg mL^−1 BSA; pH 4.7), making a final concentration of 75 to 9.4 μM, and 49 μL of compounds were added to wells. 49 μL protease substrate 1 (10 μM) was added to each well, and 2 μL recombinant HIV-PR (0.2 μg mL^−1) was added only to reaction wells except for reaction blanks, where it was replaced with 2 μL assay buffer. The solutions were mixed and incubated at 37 °C for 1 hour. Endpoint fluorescence readings at an excitation wavelength of 370 nm and an emission wavelength of 520 nm.

[3] = Cytotoxicity in PBMCs by MTS assay; assay type: cell-based; conditions: human, peripheral blood mononuclear cells (PBMCs), PHA-stimulated, HIV-negative PBMCs
Experimental: as §3

[4] = TZM-bl, 48 h, read-out: IC50 (μM) Q23, Q23 pseudovirus, TZM-bl cells, 48 hours
[5] = TZM-bl, 48 h, read-out: IC50 (μM) CAP210, CAP210 pseudovirus, TZM-bl cells, 48 hours

Row | Structure (SMILES) | IC50 (HIV-1 Q23 pseudovirus; [4]) [µM] | IC50 (HIV-1 CAP210 pseudovirus; [5]) [µM] | CC50 at 48 h [1] [µM] | further results
1 | COc1ccc(Br)cc1-c1n[nH]cc1-c1cc(OC)c2ccccc2c1O [5d, 2-[3-(5-Bromo-2-methoxyphenyl)-1H-pyrazol-4-yl]-4-methoxynaphthalen-1-ol] | 16.2 ± 2.55 | 20.8 ± 1 | 75 ± 6.4 | 
2 | COc1ccc(OC)c(-c2n[nH]cc2-c2cc(OC)c3ccccc3c2O)c1 [5c, 2-[3-(2,5-Dimethoxyphenyl)-1H-pyrazol-4-yl]-4-methoxynaphthalen-1-ol] | 13 ± 3.75 | 20.5 ± 6.8 | 47.7 ± 17.7 | 
3 | COc1cc(F)ccc1C(=O)c1coc2c1cc(OC)c1ccccc12 [4e, (4-Fluoro-2-methoxyphenyl)(5-methoxynaphtho[1,2-b]furan-3-yl)methanone] | 20.9 ± 2.2 | 4.27 ± 0.19 | 35.2 ± 2.32 | 
4 | COc1ccc(-c2n[nH]cc2-c2cc(O)ccc2O)c(OC)c1OC [5g, 2-[3-(2,3,4-Trimethoxyphenyl)-1H-pyrazol-4-yl]benzene-1,4-diol] | < 10 | 13.8 ± 1.7 | 140 ± 17.1 | IC50 (HIV-1 Q23 pseudovirus; {}): 9.93 ± 0.69 µM
5 | COc1cc(F)ccc1C(=O)c1coc2ccc(O)cc12 [3f, (4-fluoro-2-methoxyphenyl)(5-hydroxy-1-benzofuran-3-yl)methanone] | 40.6 ± 7.85 | 11.2 ± 0.31 | 41.9 ± 6.33 | 
6 | COc1ccc(OC)c(C(=O)c2coc3cc(C)c(OC)c(C)c23)c1 [4a, (2,5-Dimethoxyphenyl)(5-methoxy-4,6-dimethyl-1-benzofuran-3-yl)methanone] | 18.1 ± 1.78 | 8.12 ± 2.56 | 59.1 ± 6.56 | 
7 | Cc1cn([C@H]2C[C@H](N=[N+]=[N-])[C@@H](CO)O2)c(=O)[nH]c1=O [zidovudine] |  |  |  | IC50 [2]: 0.05 µM
8 | COc1ccc(OC)c(C(=O)c2coc3c(C)cc(OC)c(C)c23)c1 [4b, (2,5-Dimethoxyphenyl)(5-methoxy-4,7-dimethyl-1-benzofuran-3-yl)methanone] |  |  | 8.42 ± 1.16 | inhibition of HIV infection by time of addition (CAP210 pseudovirus; 3 μM): inhibit HIV infections for up to 8 hours; IC50 (HIV-1 PR): 57.5 ± 10.1 µM; SI (HIV-1 PR) (HIV-1 PR): 0.7; CC50 at 48 h [3]: 41.3 ± 6.78 µM
9 | COc1ccc(OC)c(-c2n[nH]cc2-c2cc(O)ccc2O)c1 [5h, 2-[3-(2,5-Dimethoxyphenyl)-1H-pyrazol-4-yl]benzene-1,4-diol] | < 10 | < 10 | 142 ± 13.2 | IC50 (HIV-1 Q23 pseudovirus; {}): 8.14 ± 2.63 µM; IC50 (HIV-1 CAP210 pseudovirus; {}): 6.31 ± 0.31 µM; inhibition of HIV infection by time of addition (CAP210 pseudovirus; 25 μM): only inhibited HIV infections when added on the onset of infection; IC50 (HIV-1 PR): 50.7 ± 0.78 µM; SI (HIV-1 PR) (HIV-1 PR): 1.6; CC50 at 48 h [3]: 83.2 ± 9.7 µM
